Data: ChEMBL document CHEMBL4014353, “1,2,4-Triazolo-[1,5-a]pyridine HIF Prolylhydroxylase Domain-1 (PHD-1) Inhibitors With a Novel Monodentate Binding Interaction” (J Med Chem, 2017)
Values after ≈ are worked out from the molar mass of the structure shown.

Columns and labels:
[1] = AUC (0 to t) in C57BL/6 mouse at 3 mg/kg, po administered as cassette dose; assay type: ADME, organism-based; conditions: in vivo
[2] = Ratio of drug level in C57BL/6 mouse brain to plasma at 3 mg/kg, po or 0.5 mg/kg, iv administered as cassette dose; assay type: ADME, organism-based; conditions: brain and plasma, read-out: BPR
[3] = Oral bioavailability in C57BL/6 mouse at 3 mg/kg administered as cassette dose; assay type: ADME, organism-based; conditions: in vivo
[4] = Permeability of the compound after 5 hrs by PAMPA; assay type: physicochemical; conditions: read-out: permeability
[5] = Kinetic solubility of the compound by LC-UV/MS analysis; assay type: physicochemical; conditions: read-out: Kinetic_solubility
[6] = Cmax in C57BL/6 mouse at 3 mg/kg, po administered as cassette dose; assay type: ADME, organism-based; set-up: dose 3 mg/kg, route oral; conditions: in vivo
[7] = Clearance in C57BL/6 mouse at 0.5 mg/kg, iv administered as cassette dose; assay type: ADME, organism-based; conditions: in vivo
[8] = Protein binding in mouse plasma; assay type: ADME, cell-free; conditions: read-out: PPB (converted)
[9] = Ratio of unbound brain to plasma concentration in C57BL/6 mouse at 3 mg/kg, po or 0.5 mg/kg, iv administered as cassette dose; assay type: ADME, organism-based; conditions: brain and plasma, read-out: K(p,uu,brain)

AUC(0-t) [1] | Kp [2] | bioavailability [3] | Papp at 5 h [4] | solubility kinetic [5] | Cmax [6] | clearance [7] | fraction unbound [8] | Kp uu [9] | SMILES
40000 ng·h/mL | 0.21 | 39% | 5.9 ×10⁻⁶ cm/s | 151 µM (≈ 37.6 µg/mL) | 14.8 µM | 0.48 mL/min/kg | 0.302 | 0.39 | Cc1cc(C#N)ccc1-c1cc(N)cc2ncnn12
1870 ng·h/mL | 0.88 | 100% | 40.9 ×10⁻⁶ cm/s | 189 µM (≈ 44.3 µg/mL) | 5.58 µM | 31.6 mL/min/kg | 0.21 | 1.59 | Cc1cc(C#N)ccc1-c1cccc2ncnn12
3660 ng·h/mL | 0.03 | 100% | 2.9 ×10⁻⁶ cm/s | 99 µM (≈ 28.8 µg/mL) | 5 µM | 17.5 mL/min/kg | 0.486 | 0.02 | CC(=O)Nc1cc(-c2ccc(C#N)cc2C)n2ncnc2c1
176 ng·h/mL | 0.95 | 40% | 24.6 ×10⁻⁶ cm/s | 44 µM (≈ 9.69 µg/mL) | 0.8 µM | 108 mL/min/kg | 0.287 | 1.11 | N#Cc1ccc(-c2cccc3ncnn23)cc1
